Assay results published in patent US20240228497A1, “Pyrrolo[2, 3-b]Pyrazine-Based Bifunctional Compounds as HPK1 Degraders and the Use Thereof” (BeiGene, Ltd., priority 2021, published 2024).

Experiments:
[1] = biological target: T1, HPK1 kinase (aa1-346, Life Technologies) (Homo sapiens, UniProt Q92918); experiment: HPK Kinase Activity Assay at 1 mM ATP (TR-FRET); assay type: biochemical; conditions: HPK1 kinase 40 nM, 0.5 μM STK1 substrate, 60 min preincubation, read-out: Enzymatic activity IC50
T1 construct: HPK1 kinase (aa1-346, Life Technologies); purchased Life Technologies
T1 sequence (Q92918 1-346): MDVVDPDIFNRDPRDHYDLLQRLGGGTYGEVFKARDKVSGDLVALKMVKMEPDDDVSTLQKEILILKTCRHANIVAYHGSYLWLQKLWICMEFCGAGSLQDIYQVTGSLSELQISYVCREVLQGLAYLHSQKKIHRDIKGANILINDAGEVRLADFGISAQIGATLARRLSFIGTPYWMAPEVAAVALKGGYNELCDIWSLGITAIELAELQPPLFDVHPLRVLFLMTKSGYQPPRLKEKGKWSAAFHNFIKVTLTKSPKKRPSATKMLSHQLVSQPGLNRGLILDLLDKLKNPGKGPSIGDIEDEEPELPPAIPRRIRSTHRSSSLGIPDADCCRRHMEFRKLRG
Method: HPK Kinase Activity Assay at 1 mM ATP
Compounds disclosed herein were tested for inhibition of HPK1 kinase (aa1-346, Life Technologies) activity in assays based on the time-resolved fluorescence-resonance energy transfer (TR-FRET) methodology. The assays were carried out in 384-well low volume black plates in a reaction mixture containing HPK1 kinase (40 nM), 1 mM ATP, 0.5 μM STK1 substrate and 0-10 μM compound in buffer containing 50 mM HEPES, 0.01% BSA, 0.1 mM Orthovanadate, 10 mM MgCl2, 1 mM DTT, pH=7.0, 0.005% Tween-20. The kinase was incubated with the compounds disclosed herein or DMSO for 60 minutes at room temperature and the reaction was initiated by the addition of ATP and STK1 substrate. After reaction at room temperature for 120 minutes, an equal volume of stop/detection solution was added according to the manufacture's instruction (CisBio). The stop/detection solution contained STK Antibody—Cryptate and XL665-conjugated streptavidin in Detection Buffer. The TR-FRET signals (ratio of fluorescence emission at 665 nm over emission at 620 nm with excitation at 337 nm wavelength) were recorded on a PHERAstar FS plate reader (BMG Labtech). Phosphorylation of STK1 substrate led to the binding of STK Antibody—Cryptate to the biotinylated STK1 substrate, which places fluorescent donor (Eu^3+ crypate) in close proximity to the accepter (Streptavidin-XL665), thus resulting in a high degree of fluorescence resonance energy transfer. The inhibition of HPK1 in presence of increasing concentrations of compounds was calculated based on the ratio of fluorescence at 665 nm to that at 620 nm. IC50 determination was performed by fitting the curve of percent inhibition versus the log of the inhibitor concentration using Dotmatics.

[2] = test system: pSLP76 (S376) level in Jurkat cell line; experiment: Cellular pSLP76(S376) HTRF Assay in Jurkat cells; assay type: cell-based; conditions: 2 h compound treatment, stimulated with 0.05 μg/mL anti-human CD3 (OKT3) for 30 min
Method: Cellular pSLP76(S376) HTRF Assay
Jurkat cell line was used in this study. Cells were maintained in RPMI 1640 supplemented with heat-inactivated 10% fetal bovine serum (Thermo Fisher), 50 units/mL penicillin and streptomycin (Thermo Fisher) and kept at 37° C. in a humidified atmosphere of 5% CO2 in air. Cells were reinstated from frozen stocks that were laid down within 30 passages from the original cells purchased. After cell starvation in the assay buffer (RPMI 1640 supplemented with heat-inactivated 0.1% fetal bovine serum) for 18 hours, cells were seeded into a round bottom 96-well plate at 150,000 cells per well density. Cells were treated with a 9-point dilution series of test compounds. The final compound concentration is from 0 to 2 μM. After 2 h compound treatment, cells were stimulated with 0.05 μg/mL anti-human CD3 (OKT3, Bioxcell) for 30 min at 37° C. Then the cells were lysed, and the pSLP76 (S376) level in the cell lysates was detected by HTRF kit (Cisbio). A total of 16 μL of cell lysate from each well of a 96-well plate was transferred to a 384-well small volume white assay plate. Lysate from each well was incubated with 2 μL of Eu^3+-cryptate (donor) labeled anti-phospho-SLP76 and 2 μL of D2 (acceptor) labeled anti-phospho-SLP76 antibodies (Cisbio) overnight in dark at room temperature. FRET signals (655 nm) were measured using a PHERAstar FSX reader (BMG Labtech). IC50 determination was performed by fitting the curve of percent inhibition versus the log of the inhibitor concentration using Dotmatics.

HPK1 protein = biological target: T2, HPK1 protein (Homo sapiens, UniProt Q92918); experiment: HPK1 Protein Degradation Assay in Human PBMC (Western Blot); assay type: cell-based; conditions: 24 h compound incubation
T2 construct: host or cells: human PBMC (CD4+ and CD8+ T cells gated in the FACS assay)
Method: HPK1 Protein Degradation Assay in Human PBMC (Western Blot)
Human PBMCs (AllCells) was used in this study. Cells were thawed one day in advance and maintained in RPMI-1640 supplemented 10% fetal bovine serum (Thermo Fisher), 50 units/mL penicillin and streptomycin (Thermo Fisher) and the mixture was kept at 37° C. in a humidified atmosphere air containing 5% CO2. 3×10^6 PBMCs per well in 1 mL culture medium were seeded in the 12-well plate, and the cells were treated with an appropriate dilution series of compounds with a final concentration up to […]. After 24 h of compound incubation, the medium was aspirated, the cells were washed with PBS, and then 30 μL of 1X protein lysis buffer (Cell Signaling Technology) containing protease inhibitors (Merck) and phosphatase inhibitors (Sigma) was added. The cells were lysed. After centrifugation, the supernatants were quantified by BCA protein assay kit (Thermo Fisher). 4X loading Buffer (Thermo Fisher) was added to equal amounts of total protein from each sample and heated at 95° C. for 5 minutes. 30-50 μg of cell lysate was loaded onto a 4%-12% NuPAGE Bis-Tris Gel (Thermo Fisher) and electro-transferred to NC membranes (Thermo Fisher). The membranes were blocked for least 1 hour with blocking reagent (LI-COR), and then incubated overnight with anti-HPK1 (Cell Signaling Technology, 4472S) antibodies and as loading control anti-ß-actin (Cell Signaling Technology, 3700S) or anti-GAPDH (Cell Signaling Technology, 97166S) at 4° C. with gentle shaking. The membranes were washed three times with TBST, and incubated at least 1 hour at room temperature with anti-mouse or anti-rabbit secondary fluorescent antibody (Thermo Fisher, A32729; LI—COR, 926-32213). Then the membranes were washed three times in TBST, and one time in water. Immunoreactive bands were visualized by Odyssey CLx and analyzed by GraphPad Prism 8.

T2 sequence (Q92918 whole entry): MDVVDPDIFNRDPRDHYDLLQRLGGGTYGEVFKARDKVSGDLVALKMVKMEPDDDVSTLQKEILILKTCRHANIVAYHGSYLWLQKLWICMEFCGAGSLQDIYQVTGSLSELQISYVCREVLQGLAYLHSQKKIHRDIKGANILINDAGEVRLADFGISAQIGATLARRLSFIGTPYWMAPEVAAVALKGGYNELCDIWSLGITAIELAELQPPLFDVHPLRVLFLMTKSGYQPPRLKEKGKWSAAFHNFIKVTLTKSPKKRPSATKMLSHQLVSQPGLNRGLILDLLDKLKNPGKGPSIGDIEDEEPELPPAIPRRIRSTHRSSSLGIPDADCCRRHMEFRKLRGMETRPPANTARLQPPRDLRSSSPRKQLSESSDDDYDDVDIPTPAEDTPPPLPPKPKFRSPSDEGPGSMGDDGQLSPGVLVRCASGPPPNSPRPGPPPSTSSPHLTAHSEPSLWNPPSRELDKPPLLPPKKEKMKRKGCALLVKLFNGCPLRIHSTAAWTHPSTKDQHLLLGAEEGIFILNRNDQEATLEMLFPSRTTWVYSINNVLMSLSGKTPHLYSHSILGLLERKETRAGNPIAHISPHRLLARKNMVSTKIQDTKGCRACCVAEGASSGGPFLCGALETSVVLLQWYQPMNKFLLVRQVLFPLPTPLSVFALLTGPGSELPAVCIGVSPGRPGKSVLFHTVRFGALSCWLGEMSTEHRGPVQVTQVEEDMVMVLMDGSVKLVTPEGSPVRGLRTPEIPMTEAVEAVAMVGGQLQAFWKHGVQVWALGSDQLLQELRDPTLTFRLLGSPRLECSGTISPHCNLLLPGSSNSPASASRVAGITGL

SMILES	IC50 [1]	IC50 [2]	DC50 (HPK1 protein)	Dmax (HPK1 protein)	Protein degradation DC90 (HPK1 protein)
Cc1cc(-c2c[nH]c3ncc(-c4cc(C)c5c(c4)CCN(CCC(=O)NCC4CCN(c6ccc(C7CCC(=O)NC7=O)cc6)CC4)C5)nc23)ccc1C(=O)N(C)C (stereo not drawn) [Example 2, 4-(2-(2-(3-(((1-(4-(2,6-dioxopiperidin-3-yl)phenyl)piperidin-4-yl)methyl)amino)-3-oxopropyl)-8-methyl-1,2,3,4-tetrahydroisoquinolin-6-yl)-5H-pyrrolo[2,3-b]pyrazin-7-yl)-N,N,2-trimethylbenzamide]	0.253 µM	0.515 µM	0.087 µM	91%	0.294 µM
Cc1cc(-c2c[nH]c3ncc(-c4cc(C)c5c(c4)CCN(CCC(=O)N4CCN(c6ccc(N7CCC(=O)NC7=O)cc6)CC4)C5)nc23)ccc1C(=O)N(C)C [Example 3, 4-(2-(2-(3-(4-(4-(2,4-dioxotetrahydropyrimidin-1(2H)-yl)phenyl)piperazin-1-yl)-3-oxopropyl)-8-methyl-1,2,3,4-tetrahydroisoquinolin-6-yl)-5H-pyrrolo[2,3-b]pyrazin-7-yl)-N,N,2-trimethylbenzamide]	0.061 µM	0.193 µM	0.023 µM	97%	0.215 µM
Cc1cc(-c2c[nH]c3ncc(-c4cc(C)c5c(c4)CCN(CCC(=O)NC4CCN(c6ccc(N7CCC(=O)NC7=O)cc6)CC4)C5)nc23)ccc1C(=O)N(C)C [Example 4, 4-(2-(2-(3-((1-(4-(2,4-dioxotetrahydropyrimidin-1(2H)-yl)phenyl)piperidin-4-yl)amino)-3-oxopropyl)-8-methyl-1,2,3,4-tetrahydroisoquinolin-6-yl)-5H-pyrrolo[2,3-b]pyrazin-7-yl)-N,N,2-trimethylbenzamide]	0.14 µM	0.459 µM	0.059 µM	95%	0.817 µM
